Results taken from patent US20240189309A1, “TYK2 INHIBITORS AND USES THEREOF” (Sudo Biosciences Limited, priority 2021, published 2024).

How the values were obtained:
[1] = system: HEK-Blue™ IFNγ reporter cells; assay: HEK-Blue IFNγ reporter assay (SEAP) for determining selectivity; assay type: cell-based; details: 50 ng/mL human recombinant IFNγ, read-out: IFN-γ (SEAP selectivity, IC50)
Procedure: (§1) Example B-3: HEK-Blue™ IL-2 and IFNγ Reporter Assays for Determining Selectivity
(§2) HEK-Blue™ IL-2 and IFNγ reporter cells with a stably-integrated cytokine receptor and STAT5 or STAT1 express STAT-inducible secreted embryonic alkaline phosphatase (SEAP) reporter gene upon cytokine stimulation. These cells were plated in DMEM (Gibco) containing 10% heat-inactivated FBS (Gibco) and 100 U/mL PenStrep (Gibco) at 37° C. under 5% CO2 conditions for 20-22 hours. The cells were then pre-treated with serially diluted test compounds for 60 min prior to stimulation with either 4 ng/mL human recombinant IL-2 (Miltenyl Biotech) or 50 ng/mL human recombinant IFNγ (InvivoGen) for 24 hours. SEAP induction was measured using the QUANTI-Blue™ Solution (InvivoGen) according to the manufacturer's instructions.

[2] = target: T1, JAK1-JH1 (Homo sapiens, UniProt P23458); assay: HTRF-based selectivity assay, JAK1 catalytic domain; assay type: biochemical; details: kinase domain (JH1), ATP 21.43 μM
T1 construct: recombinant purified His or GST-tagged catalytic domain for each enzyme; made in house
T1 sequence (P23458 875-1153 limits assumed): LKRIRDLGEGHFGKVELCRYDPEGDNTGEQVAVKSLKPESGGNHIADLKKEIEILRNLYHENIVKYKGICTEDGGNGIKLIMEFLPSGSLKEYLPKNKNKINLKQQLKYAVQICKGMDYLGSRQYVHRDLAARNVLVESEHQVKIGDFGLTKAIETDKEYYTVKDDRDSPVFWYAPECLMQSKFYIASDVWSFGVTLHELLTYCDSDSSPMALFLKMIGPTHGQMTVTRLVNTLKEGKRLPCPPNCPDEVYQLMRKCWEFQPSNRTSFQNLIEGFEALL
Procedure: (§3) Example B-2: HTRF-Based Selectivity Assay
(§4) The ability of compounds to inhibit the activity of JAK1, JAK2, JAK3 and TYK2 is measured using a recombinant purified His or GST-tagged catalytic domain for each enzyme (JAK1, JAK2 and TYK2 are generated in-house; JAK3 was purchased from Carna biosciences, Cat #08-046) in an HTRF format biochemical assay. The reactions employs a commercial peptide substrate from Cisbio (Cat #62TK0PEC). The basic assay protocol is as follows: first, 2.5 μL of diluted compounds (4×) in DMSO are dispensed into a 384-well Optiplate. Next, 2.5 μL of enzyme (final concentrations for enzymes are: TYK2—700 ng/mL, JAK1—80.6 ng/mL, JAK2—2.1 ng/mL and JAK3—171.8 ng/mL) is added and incubated at RT for 5-20 min. Finally, 5 μl of mixture of 2×ATP [Final concentration 20 μM for TYK2, 21.43 μM for JAK1, 14.7 μM for JAK2 and 2.12 μM for JAK3]+2× Substrate [Final concentration 217 nM for TYK2, 454.7 nM for JAK1, 200 nM for JAK2 and 257.4 nM for JAK3] is added to 384 well Optiplate. Composition of Kinase assay buffer used in the assay is as follows: HEPES 50 mM, EGTA 1 mM, MgCl2 10 mM, DTT 2 mM, Tween-20 0.01% and water. Then the plates are shaken and then incubated at 26.5° C. for 60 min.

[3] = target: T2, TYK2 Pseudokinase (JH2) (Homo sapiens, UniProt P29597); assay: HEK-Blue IFNα/β reporter assay (SEAP) for profiling TYK2 pseudokinase (JH2) inhibition; assay type: cell-based; details: HEK-Blue IFNα/β cells, 1 ng/mL human recombinant IFNα, read-out: IFNα (TYK2 inhibitory activity, IC50)
T2 sequence (P29597 whole entry): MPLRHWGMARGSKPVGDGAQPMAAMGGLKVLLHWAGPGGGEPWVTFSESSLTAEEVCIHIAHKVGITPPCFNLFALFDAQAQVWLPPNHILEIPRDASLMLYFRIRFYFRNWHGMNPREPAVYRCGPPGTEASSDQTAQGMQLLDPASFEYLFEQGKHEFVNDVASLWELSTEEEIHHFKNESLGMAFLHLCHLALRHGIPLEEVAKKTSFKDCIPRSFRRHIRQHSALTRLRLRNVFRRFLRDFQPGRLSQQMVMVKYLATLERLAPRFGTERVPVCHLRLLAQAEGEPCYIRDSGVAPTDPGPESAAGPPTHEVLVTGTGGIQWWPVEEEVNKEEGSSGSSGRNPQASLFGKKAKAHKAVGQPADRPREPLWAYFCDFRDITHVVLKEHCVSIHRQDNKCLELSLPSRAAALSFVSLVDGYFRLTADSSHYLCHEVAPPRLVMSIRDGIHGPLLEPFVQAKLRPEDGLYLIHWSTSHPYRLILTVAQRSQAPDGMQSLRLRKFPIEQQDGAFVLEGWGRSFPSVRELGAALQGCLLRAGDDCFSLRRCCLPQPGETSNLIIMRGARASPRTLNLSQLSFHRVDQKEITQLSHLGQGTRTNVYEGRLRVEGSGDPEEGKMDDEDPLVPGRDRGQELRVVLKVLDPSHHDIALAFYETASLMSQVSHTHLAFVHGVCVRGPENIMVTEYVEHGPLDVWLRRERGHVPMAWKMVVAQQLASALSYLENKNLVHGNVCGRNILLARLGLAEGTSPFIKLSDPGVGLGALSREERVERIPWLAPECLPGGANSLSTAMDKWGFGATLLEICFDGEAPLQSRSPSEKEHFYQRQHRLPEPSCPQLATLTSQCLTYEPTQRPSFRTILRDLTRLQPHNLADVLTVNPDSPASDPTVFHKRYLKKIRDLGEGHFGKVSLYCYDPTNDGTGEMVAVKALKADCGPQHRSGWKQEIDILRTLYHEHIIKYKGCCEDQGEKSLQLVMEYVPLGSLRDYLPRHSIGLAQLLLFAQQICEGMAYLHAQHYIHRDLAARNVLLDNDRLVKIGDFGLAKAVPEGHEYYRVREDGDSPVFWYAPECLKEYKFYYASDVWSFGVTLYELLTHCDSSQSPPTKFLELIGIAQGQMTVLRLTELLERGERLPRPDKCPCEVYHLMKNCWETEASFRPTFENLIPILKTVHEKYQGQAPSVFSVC
Procedure: (§5) Example B-1: HEK-Blue™ IL-23 and IFNα/β Reporter Assays for Profiling TYK2 Pseudokinase (JH2) Inhibition
(§6) HEK-Blue™ IL-23 and IFNα/β cells with a stably-integrated cytokine receptor and STAT3 or STAT1 express STAT-inducible secreted embryonic alkaline phosphatase (SEAP) reporter gene upon cytokine stimulation. These cells are plated in DMEM (Gibco) containing 10% heat-inactivated FBS (Gibco) and 100 U/mL PenStrep (Gibco) at 37° C. under 5% CO2 conditions for 20-22 hours. The cells are then pretreated with serially diluted test compounds for 60 min prior to stimulation with either 10 ng/mL human recombinant IL-23 (Miltenyl Biotech) or 1 ng/mL human recombinant IFNα (InvivoGen) for 22-24 hours for IL-23 or 16-18 h for IFNα. SEAP induction is measured using the QUANTI Blue™ Solution (InvivoGen) according to the manufacturer's instructions.

[4] = target: T3, JAK2-JH1 (Homo sapiens, UniProt O60674); assay: HTRF-based selectivity assay, JAK2 catalytic domain; assay type: biochemical; details: kinase domain (JH1), ATP 14.7 μM
T3 construct: recombinant purified His or GST-tagged catalytic domain for each enzyme; made in house
T3 sequence (O60674 849-1124 limits assumed): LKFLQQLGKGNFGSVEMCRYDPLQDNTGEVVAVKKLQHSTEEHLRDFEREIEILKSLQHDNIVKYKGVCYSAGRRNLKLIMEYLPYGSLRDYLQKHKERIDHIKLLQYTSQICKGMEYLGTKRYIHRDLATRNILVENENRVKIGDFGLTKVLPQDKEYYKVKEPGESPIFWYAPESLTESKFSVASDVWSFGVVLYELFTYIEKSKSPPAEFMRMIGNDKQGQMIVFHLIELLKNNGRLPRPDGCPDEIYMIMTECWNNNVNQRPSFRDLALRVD
Procedure: as §3, §4

[5] = target: T4, TYK2-JH1 (Homo sapiens, UniProt P29597); assay: HTRF-based selectivity assay, TYK2 catalytic domain; assay type: biochemical; details: kinase domain (JH1), ATP 20 μM
T4 construct: recombinant purified His or GST-tagged catalytic domain for each enzyme; made in house
T4 sequence (P29597 897-1176 limits assumed): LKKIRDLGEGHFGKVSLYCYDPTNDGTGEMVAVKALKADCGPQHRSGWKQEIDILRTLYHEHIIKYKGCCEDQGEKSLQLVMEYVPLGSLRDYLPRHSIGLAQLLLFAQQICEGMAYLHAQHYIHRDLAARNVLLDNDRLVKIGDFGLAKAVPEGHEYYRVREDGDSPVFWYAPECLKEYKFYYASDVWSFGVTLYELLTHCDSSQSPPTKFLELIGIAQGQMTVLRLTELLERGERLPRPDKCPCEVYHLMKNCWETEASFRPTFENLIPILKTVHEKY
Procedure: as §3, §4

[6] = target: T5, JAK3-JH1 (Homo sapiens, UniProt P52333); assay: HTRF-based selectivity assay, JAK3 catalytic domain; assay type: biochemical; details: kinase domain (JH1), ATP 2.12 μM
T5 construct: recombinant purified His or GST-tagged catalytic domain for each enzyme; purchased Carna biosciences 08-046
T5 sequence (P52333 822-1111 limits assumed): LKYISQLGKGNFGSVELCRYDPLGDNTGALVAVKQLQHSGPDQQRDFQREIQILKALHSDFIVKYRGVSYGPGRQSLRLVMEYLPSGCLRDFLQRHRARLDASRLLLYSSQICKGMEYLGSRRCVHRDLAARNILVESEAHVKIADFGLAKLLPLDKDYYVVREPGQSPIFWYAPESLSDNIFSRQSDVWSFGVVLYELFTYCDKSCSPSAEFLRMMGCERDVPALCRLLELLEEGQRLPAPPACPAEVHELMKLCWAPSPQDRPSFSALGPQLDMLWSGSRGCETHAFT
Procedure: as §3, §4

[7] = system: HEK-Blue™ IL-2 reporter cells; assay: HEK-Blue IL-2 reporter assay (SEAP) for determining selectivity; assay type: cell-based; details: HEK-Blue IL-2 cells, 4 ng/mL human recombinant IL-2, SEAP reporter
Procedure: as §1, §2

[8] = target: T2, TYK2 Pseudokinase (JH2); assay: HEK-Blue IL-23 reporter assay (SEAP) for profiling TYK2 pseudokinase (JH2) inhibition; assay type: cell-based; set-up: HEK-Blue™ IL-23 and IFNα/β cells with a stably-integrated cytokine receptor and STAT3 or STAT1; endogenous in cells; host or cells: HEK-Blue IL-23 and HEK-Blue IFNα/β cells; details: HEK-Blue IL-23 cells, 10 ng/mL human recombinant IL-23, SEAP reporter; read-out: IL23 (TYK2 inhibitory activity, IC50)
Procedure: as §5, §6

| IC50 [2] | IC50 [3] | IC50 [4] | IC50 [5] | IC50 [6] | IC50 [8] | SMILES | IC50 [1] | IC50 [7] |
| --- | --- | --- | --- | --- | --- | --- | --- | --- |
| > 1000 nM | < 30 nM | > 1000 nM | > 1000 nM | > 1000 nM | < 30 nM | [2H]C([2H])([2H])NC(=O)c1cnc(Nc2cc(C)nc(C)n2)cc1Nc1cccc2c1N(C)Cc1nn(C)c(=O)n1-2 [Compound 12, 4-((2,5-dimethyl-1-oxo-1,2,4,5-tetrahydro-[1,2,4]triazolo[4,3-a]quinoxalin-6-yl)amino)-6-((2,6-dimethylpyrimidin-4-yl)amino)-N-(methyl-d3)nicotinamide] | > 1000 nM | > 1000 nM |
| > 1000 nM | < 30 nM | > 1000 nM | > 1000 nM | > 1000 nM | < 30 nM | [2H]C([2H])([2H])NC(=O)c1cnc(NC(=O)C2CC2)cc1Nc1cc(F)cc2c1N(C)Cc1nn(C)c(=O)n1-2 [Compound 16, 6-(cyclopropanecarboxamido)-4-((8-fluoro-2,5-dimethyl-1-oxo-1,2,4,5-tetrahydro-[1,2,4]triazolo[4,3-a]quinoxalin-6-yl)amino)-N-(methyl-d3)nicotinamide] | > 1000 nM | > 1000 nM |
| > 1000 nM | 30 to 300 nM | > 1000 nM | > 1000 nM | > 1000 nM | < 30 nM | [2H]C([2H])([2H])NC(=O)c1cnc(NC(=O)C2CC2)cc1Nc1cccc2c1N(C)Cc1nnnn1-2 [Compound 11, 6-(cyclopropanecarboxamido)-N-(methyl-d3)-4-((5-methyl-4,5-dihydrotetrazolo[1,5-a]quinoxalin-6-yl)amino)nicotinamide] | > 1000 nM | > 1000 nM |
| > 1000 nM | < 30 nM | > 1000 nM | > 1000 nM | > 1000 nM | < 30 nM | [2H]C([2H])([2H])NC(=O)c1nnc(NC(=O)C2CC2)cc1Nc1cccc2c1N(C)Cc1nn(C)c(=O)n1-2 [Compound 17, 6-(cyclopropanecarboxamido)-4-((2,5-dimethyl-1-oxo-1,2,4,5-tetrahydro-[1,2,4]triazolo[4,3-a]quinoxalin-6-yl)amino)-N-(methyl-d3)pyridazine-3-carboxamide] | 30 to 300 nM | > 1000 nM |
| > 1000 nM | < 30 nM | > 1000 nM | > 1000 nM | > 1000 nM | < 30 nM | [2H]C([2H])([2H])NC(=O)c1nnc(NC(=O)C2CC2)cc1Nc1nccc2c1N(C)Cc1nn(C)c(=O)n1-2 [Compound 20, 6-(cyclopropanecarboxamido)-4-((2,5-dimethyl-1-oxo-1,2,4,5-tetrahydropyrido[3,4-e][1,2,4]triazolo[4,3-a]pyrazin-6-yl)amino)-N-(methyl-d3)pyridazine-3-carboxamide] |  | > 1000 nM |
| > 1000 nM | < 30 nM | > 1000 nM | > 1000 nM | > 1000 nM | < 30 nM | [2H]C([2H])([2H])NC(=O)c1cnc(NC(=O)C2CC2)cc1Nc1cccc2c1N(C)Cc1nn(C)c(=O)n1-2 [Compound 8, 6-(cyclopropanecarboxamido)-4-((2,5-dimethyl-1-oxo-1,2,4,5-tetrahydro-[1,2,4]triazolo[4,3-a]quinoxalin-6-yl)amino)-N-(methyl-d3)nicotinamide] | 300 to 1000 nM | > 1000 nM |
| > 1000 nM | < 30 nM | > 1000 nM | > 1000 nM | > 1000 nM | < 30 nM | [2H]C([2H])([2H])NC(=O)c1cnc(Nc2ccc(F)cn2)cc1Nc1cccc2c1N(C)Cc1nn(C)c(=O)n1-2 [Compound 9, 4-((2,5-dimethyl-1-oxo-1,2,4,5-tetrahydro-[1,2,4]triazolo[4,3-a]quinoxalin-6-yl)amino)-6-((5-fluoropyridin-2-yl)amino)-N-(methyl-d3)nicotinamide] | > 1000 nM | > 1000 nM |
| > 1000 nM | 30 to 300 nM | > 1000 nM | > 1000 nM | > 1000 nM | < 30 nM | [2H]C([2H])([2H])NC(=O)c1cnc(Nc2ccc(F)cn2)cc1Nc1cccc2c1N(C)Cc1nnnn1-2 [Compound 10, 6-((5-fluoropyridin-2-yl)amino)-N-(methyl-d3)-4-((5-methyl-4,5-dihydrotetrazolo[1,5-a]quinoxalin-6-yl)amino)nicotinamide] | > 1000 nM | > 1000 nM |
| > 1000 nM | 30 to 300 nM | > 1000 nM | > 1000 nM | > 1000 nM | < 30 nM | [2H]C([2H])([2H])NC(=O)c1nnc(NC(=O)C2CC2)cc1Nc1cc(F)cc2c1N(C)Cc1nn(C)c(=O)n1-2 [Compound 18, 6-(cyclopropanecarboxamido)-4-((8-fluoro-2,5-dimethyl-1-oxo-1,2,4,5-tetrahydro-[1,2,4]triazolo[4,3-a]quinoxalin-6-yl)amino)-N-(methyl-d3)pyridazine-3-carboxamide] |  | > 1000 nM |
| > 1000 nM | > 1000 nM | > 1000 nM | > 1000 nM | > 1000 nM | < 30 nM | CNC(=O)c1nnc(Nc2ccc(F)cn2)cc1Nc1cccc2c1OCc1conc1-2 [Compound 2, 4-((4H-chromeno[4,3-c]isoxazol-6-yl)amino)-6-((5-fluoropyridin-2-yl)amino)-N-methylpyridazine-3-carboxamide] | 300 to 1000 nM | > 1000 nM |
| > 1000 nM | 300 to 1000 nM | > 1000 nM | > 1000 nM | > 1000 nM | 30 to 300 nM | CNC(=O)c1cnc(Nc2ccc(F)cn2)cc1Nc1cccc2c1OCCn1nnnc1-2 [Compound 15, 4-((5,6-dihydrobenzo[f]tetrazolo[1,5-d][1,4]oxazepin-8-yl)amino)-6-((5-fluoropyridin-2-yl)amino)-N-methylnicotinamide] |  |  |
